From US9035021B2, “Somatostatin analogues” (Novartis AG, priority 2001, dated 2015) come the findings set out here.

The test system of one data set is carotid artery neointima. The data set is described as follows: Angioplasty, rat model of balloon catheter injury. The class given is in vivo. The note with it: 10 μg/kg/h continuous infusion, 14 days after balloon injury. The protocol: Studies on angioplasty are done in the rat model of balloon catheter injury. Balloon catheterization is performed on day 0, essentially as described by Powell et al. (1989). Under Isofluorane anaesthesia, a Fogarty 2F catheter is introduced into the left common carotid artery to obtain a uniform de-endothelialization. The catheter is then removed, a ligature placed around the external carotid to prevent bleeding and the animals allowed to recover. 2 groups of 12 RoRo rats (400 g, approximately 24 weeks old) are used for the study: one control group and one group receiving Compound A and the rats are fully randomized. Compound A is administered by continuous infusion using minipumps at a rate of 10 μg/kg/h starting 2 days before balloon injury […] until the end of the study, 14 days after balloon injury. The rats are then anaesthetized with Isofluorane and perfused with 0.1 M phosphate buffered saline solution (PBS, pH 7.4) and then for 15 min. with 2.5% glutaraldehyde in phosphate buffer (pH 7.4). Carotid arteries are then excised, separated from surrounding tissue and immersed in 0.1 M cacodylate buffer (pH 7.4) containing 7% saccharose and incubated overnight at 4° C. […] The cross-sectional area of the media, neointima and the lumen are evaluated morphometrically by means of an image analysis system (MCID, Toronto, Canada).

The next data set has as its system blood vessel formation. Nature of the data set: Angiogenesis test in nude mice (SiHa and MDA MB-231 cells). The class given is in vivo. The conditions noted are these: dose e.g. 0.01 to 1000 μg/kg s.c. On the procedure:
Compound A also has an inhibiting effect on angiogenesis, as indicated in standard tests, e.g. in nude mice. Briefly, tumor cells (0.1 to 10×10^6 in 0.1 ml) (SiHa cells and MDA MB-231 cells prepared as disclosed in Angiogenesis, Ed. by R. Steiner, P. B. Weisz and R. Langer, 1992, Switzerland) are inoculated intracutaneously. Usually two midventral sites/mouse are injected which are located distant from the main ventral skin vessels so that the background vessel count is low. Control groups receive 0.1 ml 0.02% trypan blue in PBS. 10 days following injection, anesthetized mice are sacrificed by CO2 inhalation. The skin is mounted onto a plastic ring (40 mm diameter) for evaluation by an inverted microscope (Zeiss IM) at 12.5- and 25-fold magnification. As a measure of angiogenesis, vessels are photographed and those are counted that are directly connected with the tumor. In control animals those vessels are counted that are connected to a defined area around the injection site. This area corresponds to the mean area of the dermal tumors. The latter is determined by use of a caliper according to the equation 3.14×r^2. Compound A is administered s.c. either on the day of tumor inoculation or 3 days later. Control animals are vehicle-treated.

A further data set can be described thus: Plasma half-life. The class given is in vivo. The note with it: read-out: Elimination half-life. On the procedure:
Compound A has a beneficial plasma half-life. It has an elimination half-life between 15 and 30 hours.

For data set [1] the following is noted: diabetic monkeys.
For another data set, the target named is T1, hsst3 (Homo sapiens, UniProt P32745).
T1 construct: expressed in transfected cells
The data set is described as follows: Binding assay, membranes from cell lines expressing hsst3, [125I-Tyr11]-SRIF-14 radioligand. The conditions noted are these: competition binding. The protocol:
(§1) The experiments are carried out in triplicate.

In a further data set the target is T2, hsst5 (Homo sapiens, UniProt P35346).
T2 construct: expressed in transfected cells
The data set is described as follows: Binding assay, membranes from cell lines expressing hsst5, [125I-Tyr11]-SRIF-14 radioligand. The conditions noted are these: competition binding. The protocol: as §1

The target of the next data set is T3, hsst2 (Homo sapiens, UniProt P30874).
T3 construct: expressed in transfected cells
Nature of the data set: Binding assay, membranes from cell lines expressing hsst2, [125I-Tyr11]-SRIF-14 radioligand. The conditions noted are these: competition binding. The protocol:
as §1

For data set [2], the target named is growth hormone secretagogue receptors (Homo sapiens, UniProt Q92847). From the text: Such receptors are disclosed by G. Muccioli et al., J. Endocrinol. 1998, 157, 99-106, by H. Ong et al., in Endocrinology 1998, 139, 432-435 and by R. G. Smith et al., Norm. Res., 1999, 3), 1-8. The binding assay to these receptors may be carried out as disclosed in J. Endocrinol. Invest. 24: RC1-RC3, 2001.

The subject of another data set is cultured pituitary cells. The data set is described as follows: Inhibition of GH release in vitro from cultured pituitary cells. The class given is cell-based, rats. The note with it: rat anterior pituitary cells, three hours, in the presence of 3×10^−10 M growth hormone releasing factor, RIA. On the procedure:
For example, anterior pituitary glands from adult male rats are cut into small pieces and dispersed using 0.1% trypsin in 20 mM HEPES buffer. The dispersed cells are cultured for four days in MEM (Gibco) supplemented with 5% fetal calf serum, 5% horse serum, 1 mM NaHCO3, 2.5 nM dexamethasone, […] and 20 U/ml Pen/Strep. On the day of the experiment the attached cells are washed two times with Krebs-Ringer medium buffered with 20 mM HEPES and supplemented with 5 mM glucose and 0.2% BSA. Subsequently the cells are incubated for three hours with Compound A in the presence of 3×10^−10 M growth hormone releasing factor. The amount of growth hormone released into the medium is measured by RIA. Compound A has an IC50 of 0.4 nM in this assay.

The test system of a further data set is insulin secretion. The data set is described as follows: Similar assay for measuring the effect on insulin. Details: species or system rats. The note with it: rat, in vivo.
The next data set deals with kidney allograft. Nature of the data set: Chronic allograft rejection, rat kidney allograft model. The conditions noted are these: 10 μg/kg/h infusion. The class given is in vivo. On the procedure: Chronic Allograft Rejection
The kidney of a male DA (RT1^a) rat is orthotopically transplanted into a male Lewis (RT1^1) recipient. In total 24 animals are transplanted. All animals are treated with cyclosporine A at 7.5 mg/kg/day per os for 14 days starting on the day of transplantation, to prevent acute cellular rejection. Contralateral nephrectomy is not performed. Each experimental group treated with a distinct dose of Compound A or placebo comprises six animals. Starting 14 days after transplantation, the recipient animals are treated up to 112 days by infusion with Compound A or receive placebo. At 14 days after transplantation organ perfusion is measured by MRI. This is repeated at days 53-64 after transplantation and at the end of the experiment. The animals are then autopsied.

Another data set deals with growth hormone release. Nature of the data set: Inhibition of growth hormone (GH) release in rats. The class given is in vivo. The note with it: s.c., 6 h, anaesthetized rats. On the procedure: Compound A inhibits the release of growth hormone (GH) in rats. Compound A is administered s.c. to anaesthetized rats. Blood is collected after decapitation 1 h after administration of the compound. The duration of action is estimated on the basis of the inhibition of basal GH secretion 6 h after drug treatment. Hormone levels are measured by RIA 1 h and 6 h after treatment. The ID50-value for the inhibition of the hormone secretion is determined graphically (log-probit) for each experiment and the resulting values are averaged logarithmically.

A further data set concerns heart allograft. The data set is described as follows: Heterotopic mouse heart allotransplantation model. The class given is in vivo.
A further data set relates to IGF-1 plasma levels. Nature of the data set: IGF-1 plasma levels in vivo in male rats. The protocol: Furthermore, Compound A inhibits IGF-1 plasma levels in vivo as indicated in standard tests using male rats. Briefly, Compound A is administered by osmotic pump implanted s.c. to male rats of a Lewis strain. Blood samples are collected from the retrobulbar plexus using a short anesthesia with e.g. isoflurane.

For the next data set, the system named is GH. Nature of the data set: Monkey studies, inhibition of GH. The class given is in vivo.
A further data set relates to carotid artery grafts. Nature of the data set: Carotid artery loop transplantation model. The class given is in vivo, mice. The note with it: 50 μg/kg/h s.c. mini-pump, grafts harvested at 30 days, compared with non-treated animals. The protocol:
Compound A has also been tested in a carotid artery loop transplantation model using B10.A (2R) (H-2h^2) mice as donor and B10.BR(H-2^k) mice as recipient. In brief, the donor carotid artery is transplanted paratopically as a loop into the recipient's carotid artery by an end-to-side anastomosis. A mini-pump is placed s.c. immediately after transplantation that delivers Compound A at a rate of 50 μg/kg/h. Carotid artery grafts are harvested at 30 days after transplantation to analyse vascular remodeling e.g. by morphometric analysis of Verhoeff elastin stained paraffin sections using a computer-assisted system.

The next data set deals with hsst1 (Homo sapiens, UniProt P30872). Nature of the data set: biochemical.
The next data set concerns the target T4, hsst4 (Homo sapiens, UniProt P31391).
T4 construct: expressed in transfected cells
Nature of the data set: Binding assay, membranes from cell lines expressing hsst4, [125I-Tyr11]-SRIF-14 radioligand. The note with it: competition binding. The protocol:
as §1

Each structure is given as a SMILES string. pIC50: −log10 of the molar value. *1 amine or outer side, *2 acyl side, *3 side chain or, on linkers, in order; H or OH if unused. Where a SMILES comes first, the peptide text is derived from it. Side-chain parts run from the residue outwards. [ ]: non-standard residue; d: D form. The star is where a group is joined. Ethylenediamine = C(CN[*:2])N[*:1]; Hyp = O=C(O)[C@@H]1C[C@@H](O)CN1; Phg = N[C@H](C(=O)O)c1ccccc1; CO = O=C([*:1])[*:2]; Bn = c1ccc(C*)cc1

hsst1, sequence (P30872 whole entry): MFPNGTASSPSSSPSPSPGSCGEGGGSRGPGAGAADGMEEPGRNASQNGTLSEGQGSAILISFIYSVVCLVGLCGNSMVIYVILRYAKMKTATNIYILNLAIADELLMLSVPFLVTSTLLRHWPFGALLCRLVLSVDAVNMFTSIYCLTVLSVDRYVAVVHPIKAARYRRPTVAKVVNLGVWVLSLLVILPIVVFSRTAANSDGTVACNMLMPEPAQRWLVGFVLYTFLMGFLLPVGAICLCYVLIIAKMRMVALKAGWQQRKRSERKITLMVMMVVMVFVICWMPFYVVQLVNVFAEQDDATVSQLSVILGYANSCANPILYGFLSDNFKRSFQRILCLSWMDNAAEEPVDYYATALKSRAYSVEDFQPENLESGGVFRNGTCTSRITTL
T2 sequence (P35346 whole entry): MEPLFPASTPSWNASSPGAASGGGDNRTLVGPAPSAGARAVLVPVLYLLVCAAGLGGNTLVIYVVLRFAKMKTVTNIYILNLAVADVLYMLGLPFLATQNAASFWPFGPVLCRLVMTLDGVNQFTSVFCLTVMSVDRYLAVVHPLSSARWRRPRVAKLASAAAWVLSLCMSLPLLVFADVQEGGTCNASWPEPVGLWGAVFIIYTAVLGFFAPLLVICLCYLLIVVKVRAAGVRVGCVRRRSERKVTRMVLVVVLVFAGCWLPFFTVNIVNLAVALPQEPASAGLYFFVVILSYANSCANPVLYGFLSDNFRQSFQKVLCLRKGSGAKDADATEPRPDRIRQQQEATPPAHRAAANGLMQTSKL
T3 sequence (P30874 whole entry): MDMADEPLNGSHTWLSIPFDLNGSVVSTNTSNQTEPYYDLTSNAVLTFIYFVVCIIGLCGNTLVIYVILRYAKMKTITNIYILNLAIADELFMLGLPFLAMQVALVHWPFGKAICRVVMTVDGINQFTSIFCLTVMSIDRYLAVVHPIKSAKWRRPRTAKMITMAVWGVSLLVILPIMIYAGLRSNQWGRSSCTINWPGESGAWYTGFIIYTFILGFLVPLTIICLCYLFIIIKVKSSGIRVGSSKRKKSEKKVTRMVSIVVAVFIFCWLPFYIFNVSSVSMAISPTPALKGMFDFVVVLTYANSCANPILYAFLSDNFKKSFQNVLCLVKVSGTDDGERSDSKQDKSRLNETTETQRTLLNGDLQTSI
T1 sequence (P32745 whole entry): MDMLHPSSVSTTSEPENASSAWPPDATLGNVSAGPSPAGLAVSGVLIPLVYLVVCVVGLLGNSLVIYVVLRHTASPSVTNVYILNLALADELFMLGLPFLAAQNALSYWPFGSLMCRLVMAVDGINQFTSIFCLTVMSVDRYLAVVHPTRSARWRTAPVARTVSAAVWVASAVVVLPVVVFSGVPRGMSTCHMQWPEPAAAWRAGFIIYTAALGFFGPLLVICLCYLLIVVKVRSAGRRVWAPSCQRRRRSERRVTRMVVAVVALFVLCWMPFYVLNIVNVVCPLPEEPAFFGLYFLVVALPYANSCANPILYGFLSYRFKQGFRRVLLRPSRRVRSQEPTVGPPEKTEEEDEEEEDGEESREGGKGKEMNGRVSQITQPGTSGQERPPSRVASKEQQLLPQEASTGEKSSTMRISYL
T4 sequence (P31391 whole entry): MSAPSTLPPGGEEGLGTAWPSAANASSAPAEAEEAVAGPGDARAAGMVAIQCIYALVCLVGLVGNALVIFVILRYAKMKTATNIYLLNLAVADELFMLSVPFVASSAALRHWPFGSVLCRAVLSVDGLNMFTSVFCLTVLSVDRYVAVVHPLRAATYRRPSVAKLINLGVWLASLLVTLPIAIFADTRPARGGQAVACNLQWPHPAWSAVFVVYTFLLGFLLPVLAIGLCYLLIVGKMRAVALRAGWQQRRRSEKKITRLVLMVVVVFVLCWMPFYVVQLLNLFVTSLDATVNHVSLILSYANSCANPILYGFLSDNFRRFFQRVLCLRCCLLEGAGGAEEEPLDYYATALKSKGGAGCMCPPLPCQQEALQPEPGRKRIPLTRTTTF
growth hormone secretagogue receptors, sequence (Q92847 whole entry): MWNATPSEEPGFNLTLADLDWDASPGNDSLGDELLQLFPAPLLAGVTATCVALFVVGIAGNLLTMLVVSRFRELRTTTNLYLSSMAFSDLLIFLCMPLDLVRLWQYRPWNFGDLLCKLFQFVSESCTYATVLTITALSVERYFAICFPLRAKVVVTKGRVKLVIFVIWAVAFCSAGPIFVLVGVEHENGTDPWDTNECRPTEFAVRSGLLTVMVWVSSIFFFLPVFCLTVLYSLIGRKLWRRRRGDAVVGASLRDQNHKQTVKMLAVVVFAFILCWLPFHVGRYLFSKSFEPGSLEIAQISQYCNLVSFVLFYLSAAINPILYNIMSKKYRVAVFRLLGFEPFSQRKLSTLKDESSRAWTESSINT
Procedure for hsst1: The binding assays may be carried out as disclosed hereunder using membranes from cell lines expressing selectively and stably hsst1, hsst2, hsst3, hsst4 or hsst5, e.g. CHO or COS cells.
Membranes prepared from hsst selective cell lines, e.g. CHO or COS cells stably expressing hsst1 or hsst2 or hsst3 or hsst4 or hsst5 are incubated in triplicate in a total volume of 300 μl at 22° C. for 30 min with increasing concentrations of [^125I-Tyr^11]-SRIF-14 in 10 mmol/l Hepes buffer (pH 7.6) containing 0.5% BSA. The incubation is terminated by rapid filtration and the filters are counted in a counter. Specific binding is total binding minus non-specific binding in the presence of 1 μmol/l somatostatin-14. The experiments are carried out in triplicate. The affinity constant (KD) and number of binding sites are calculated using appropriate statistics and graphical programs.

The half-life is the time needed for the level to fall by half in the phase considered. The pIC50 is the IC50 on a negative log10 scale, so that one unit is a factor of ten. Consider `NCCCC[C@@H]1NC(=O)[C@@H](Cc2c[nH]c3ccccc23)NC(=O)[C@H](c2ccccc2)NC(=O)[C@@H]2C[C@@H](OC(=O)NCCN)CN2C(=O)[C@H](Cc2ccccc2)NC(=O)[C@H](Cc2ccc(OCc3ccccc3)cc2)NC1=O` [Compound A, cyclo[{4-(NH2—C2H4—NH—CO—O—)Pro}-Phg-DTrp-Lys-Tyr(4-Bzl)-Phe]] (cyclo([Hyp]([CO-Ethylenediamine])[Phg][dW]KY(Bn)F)), for which the Neointimal thickening result in the data set with carotid artery neointima is “inhibits neointimal thickening significantly”. Moreover, the Blood vessel formation entry in the data set on blood vessel formation is given as “inhibits blood vessel formation”. The half-life in the data set “Plasma half-life” is 15 to 30 h. Besides, the Antidiabetic/insulin-sensitizing effect result in [1] was “potent antidiabetic/insulin-sensitizing effect”. In addition, the pIC50 on hsst3 is 8.82; at hsst5, 9.80; at hsst2, 9.00; in the data set with cultured pituitary cells, 9.40; against hsst1 it was 8.03; at hsst4, less than 7.00. Besides, the “Displacement of 125I-Tyr-Ala-hexarelin” value in data set [2] is on record as “displaces ^125I-Tyr-Ala-hexarelin”. In the data set with insulin secretion, the “Effect on insulin secretion” value is recorded as “inhibits insulin secretion”. Moreover, the “Chronic rejection related vascular remodelling and graft infiltration” value in the data set on kidney allograft is “reduction in chronic rejection related vascular remodelling and graft infiltration”. In addition, in the data set with kidney allograft, the IGF-1 levels result is “marked and persistent drop of IGF-1 levels”. Moreover, the “Organ perfusion (MRI)” value with kidney allograft was “improved organ perfusion”. Also, the “Mean basal ID50, inhibition of GH secretion” value in the data set on growth hormone release turned out to be 5.5 µg/kg. Also, in the data set on heart allograft, the “Vascular remodelling and graft infiltration” value is reported as “beneficial effects on vascular remodelling as well as in graft infiltration”. For the same compound, the “Inhibition of IGF-1 plasma levels” value in the data set on IGF-1 plasma levels (after 14 days of treatment with 10 μg/kg/h, osmotic pump s.c., male Lewis rats) was “more than 60%”. Further, in the data set with IGF-1 plasma levels (rat recipients of aorta or kidney allografts, continuous infusion 10 μg/kg/h up to 126 days), the “Lowering of IGF-1 plasma levels on continuous treatment” value was “significant and persistent lowering of IGF-1 plasma levels”. Moreover, in the data set on GH, the “Inhibition of GH” value is “potent and efficacious inhibition of GH”. For the same compound, the Neointimal formation entry in the data set on carotid artery grafts is “inhibits neointimal formation”.
